From the NIST ThermoML archive (doi:10.1021/je050519g)

Tests used:
[1] = 293.15 K; for surface tension liquid-gas: Pendant drop shape; for mass density: 101.33 kPa, Liquid
[2] = xn = mol fraction of the nth substance listed; conditions: 293.15 K; for surface tension liquid-gas: Pendant drop shape; for mass density: 101 kPa, Liquid

CCCO [propan-1-ol]
[1]
Conditions	mass density [kg/m3]	surface tension liquid-gas [mN/m]
–	801.3	23.78

CO [methanol]
[1]
Conditions	mass density [kg/m3]	surface tension liquid-gas [mN/m]
–	787.83	22.78

CC#N [acetonitrile] + CCCCO
[2]
Conditions	mass density [kg/m3]	surface tension liquid-gas [mN/m]
x1 = 0.1026	805.36	24.65
x1 = 0.2021	803.18	24.78
x1 = 0.302	800.8	24.94
x1 = 0.5024	795.42	25.52
x1 = 0.7014	789.23	26.53
x1 = 0.8007	785.7	27.25
x1 = 0.8995	782.01	28.14

CCCCO [butan-1-ol]
[1]
Conditions	mass density [kg/m3]	surface tension liquid-gas [mN/m]
–	807.33	24.5

CCCCCO [pentan-1-ol]
[1]
Conditions	mass density [kg/m3]	surface tension liquid-gas [mN/m]
–	815.11	25.46

CC#N [acetonitrile] + CCCO
[2]
Conditions	mass density [kg/m3]	surface tension liquid-gas [mN/m]
x1 = 0.1004	799.54	24.02
x1 = 0.2018	797.63	24.23
x1 = 0.3013	795.62	24.52
x1 = 0.5004	791.05	25.32
x1 = 0.7003	785.97	26.5
x1 = 0.8002	783.29	27.27
x1 = 0.8997	780.68	28.19
